Reference: patent publication US20250263370A1 (Tay Therapeutics Limited, priority 2022, published 2025)
Entries after “also recorded” stand apart in the source; their conditions may differ. Read-outs that look alike come from different tables or passages of the source.

Tests used:
[1] = tested on: collagen-induced arthritis; test: Histopathologic analysis of H&E-stained hind limbs of CIA rats; format: in vivo, Lewis rat; settings: for Number of animals: Erosion/Ulcer, cartilaginous, Marked / Number of animals: Erosion/Ulcer, cartilaginous, Mild / Number of animals: Erosion/Ulcer, cartilaginous, Minimal / Number of animals: Erosion/Ulcer, cartilaginous, Moderate / Number of animals: Granulation tissue, Marked / Number of animals: Granulation tissue, Mild / Number of animals: Granulation tissue, Minimal / Number of animals: Granulation tissue, Moderate / Number of animals: Increased bone, periosteum, Marked / Number of animals: Increased bone, periosteum, Mild / Number of animals: Increased bone, periosteum, Minimal / Number of animals: Increased bone, periosteum, Moderate / Number of animals: Increased eroded surface, bone, Marked / Number of animals: Increased eroded surface, bone, Mild / Number of animals: Increased eroded surface, bone, Minimal / Number of animals: Increased eroded surface, bone, Moderate / Number of animals: Mixed cell inflammation, Marked / Number of animals: Mixed cell inflammation, Mild / Number of animals: Mixed cell inflammation, Minimal / Number of animals: Mixed cell inflammation, Moderate / Number of animals: No Visible Lesions: hind limbs, CIA induced, 8 animals examined
Source text: Hind limbs were collected following euthanasia, with the left limb being used for H&E staining.
H&E-stained slides of designated tissues from animals were transferred to an independent pathologist for microscopic evaluation (SPFBio). Samples were assigned the histologic grades based on the severity of change from tissue where CIA was not induced. Histology grades assigned were as follows: grade 1 (minimal change), grade 2 (mild change), grade 3 (moderate change), grade 4 (marked change), and grade 5 (severe change).
Moderate inflammation was also associated with increased edema fluid, fibrin, and cellular debris. Marked mixed cell inflammation was characterized by dense, widespread accumulations of neutrophils and macrophages with lesser number of lymphocytes within one or more joint spaces, synovium and periarticular soft tissues. Marked inflammation was also associated with abundant edema fluid, fibrin, and cellular debris.
Marked granulation tissue (pannus) was associated with inflammation and was characterized by widespread fibrovascular connective tissue that expanded/replaced the periarticular soft tissues of one or more joints, extended into/expanded joint spaces, was contiguous with areas of erosion/ulcer in articular cartilage and/or increased eroded surface of bone, and variably extended along the diaphysis.
Instances of minimal increased eroded surface were not associated with fragments of bone contiguous and/or surrounded by granulation tissue. […] In some areas, increased eroded surfaces were contiguous with areas of erosion/ulcer in the articular cartilages. Instance of marked increased eroded surface were often associated with fragments of bone contiguous with and/or surrounded by granulation tissue.
This observation was typically most pronounced at joint margins (transition zone). The ulceration was often associated with inflammation and granulation tissue extending through the defect to the subchondral bone.
Marked increased periosteal bone (periosteal bone formation) was characterized by extensive areas of increased bone matrix and numerous prominent osteoblasts lining trabecular surfaces along the metaphysis and/or diaphysis of one or more bones. In some areas, increased periosteal bone was contiguous with increased eroded surface and/or erosion/ulcer at articular cartilage.

[2] = tested on: collagen-induced arthritis; settings: rat, in vivo
[3] = CIA rats, 3 mg/kg (group 5), hind limb H&E
[4] = CIA rats, 10 mg/kg (group 6), hind limb H&E
[5] = CIA rats, 30 mg/kg (group 7), hind limb H&E
[6] = CIA rats, daily P.O. (group 4), hind limb H&E
[7] = CIA rats, daily P.O. for 21 days

SMILES: CNC(=O)c1[nH]c(C(=O)NC2CCC2)cc1O[C@@H](C)c1ccccc1 (stereo in doubt) [Example 101, N^5-cyclobutyl-N^2-methyl-3-(1-phenylethoxy)-1H-pyrrole-2,5-dicarboxamide]
- Number of animals: Erosion/Ulcer, cartilaginous, Marked ([1]; 3 mg/kg): 0
- Number of animals: Erosion/Ulcer, cartilaginous, Mild ([1]; 3 mg/kg): 2
- Number of animals: Erosion/Ulcer, cartilaginous, Minimal ([1]; 3 mg/kg): 0
- Number of animals: Erosion/Ulcer, cartilaginous, Moderate ([1]; 3 mg/kg): 6
- Number of animals: Granulation tissue, Marked ([1]; 3 mg/kg): 0
- Number of animals: Granulation tissue, Mild ([1]; 3 mg/kg): 1
- Number of animals: Granulation tissue, Minimal ([1]; 3 mg/kg): 0
- Number of animals: Granulation tissue, Moderate ([1]; 3 mg/kg): 7
- Number of animals: Increased bone, periosteum, Marked ([1]; 3 mg/kg): 0
- Number of animals: Increased bone, periosteum, Mild ([1]; 3 mg/kg): 7
- Number of animals: Increased bone, periosteum, Minimal ([1]; 3 mg/kg): 0
- Number of animals: Increased bone, periosteum, Moderate ([1]; 3 mg/kg): 1
- Number of animals: Increased eroded surface, bone, Marked ([1]; 3 mg/kg): 0
- Number of animals: Increased eroded surface, bone, Mild ([1]; 3 mg/kg): 5
- Number of animals: Increased eroded surface, bone, Minimal ([1]; 3 mg/kg): 0
- Number of animals: Increased eroded surface, bone, Moderate ([1]; 3 mg/kg): 3
- Number of animals: Mixed cell inflammation, Marked ([1]; 3 mg/kg): 1
- Number of animals: Mixed cell inflammation, Mild ([1]; 3 mg/kg): 0
- Number of animals: Mixed cell inflammation, Minimal ([1]; 3 mg/kg): 0
- Number of animals: Mixed cell inflammation, Moderate ([1]; 3 mg/kg): 7
- Number of animals: No Visible Lesions ([1]; 3 mg/kg): 0
- Number of animals: Erosion/Ulcer, cartilaginous, Marked ([1]; 10 mg/kg): 0
- Number of animals: Erosion/Ulcer, cartilaginous, Mild ([1]; 10 mg/kg): 3
- Number of animals: Erosion/Ulcer, cartilaginous, Minimal ([1]; 10 mg/kg): 1
- Number of animals: Erosion/Ulcer, cartilaginous, Moderate ([1]; 10 mg/kg): 3
- Number of animals: Granulation tissue, Marked ([1]; 10 mg/kg): 0
- Number of animals: Granulation tissue, Mild ([1]; 10 mg/kg): 3
- Number of animals: Granulation tissue, Minimal ([1]; 10 mg/kg): 0
- Number of animals: Granulation tissue, Moderate ([1]; 10 mg/kg): 3
- Number of animals: Increased bone, periosteum, Marked ([1]; 10 mg/kg): 0
- Number of animals: Increased bone, periosteum, Mild ([1]; 10 mg/kg): 4
- Number of animals: Increased bone, periosteum, Minimal ([1]; 10 mg/kg): 1
- Number of animals: Increased bone, periosteum, Moderate ([1]; 10 mg/kg): 2
- Number of animals: Increased eroded surface, bone, Marked ([1]; 10 mg/kg): 0
- Number of animals: Increased eroded surface, bone, Mild ([1]; 10 mg/kg): 2
- Number of animals: Increased eroded surface, bone, Minimal ([1]; 10 mg/kg): 2
- Number of animals: Increased eroded surface, bone, Moderate ([1]; 10 mg/kg): 3
- Number of animals: Mixed cell inflammation, Marked ([1]; 10 mg/kg): 2
- Number of animals: Mixed cell inflammation, Mild ([1]; 10 mg/kg): 2
- Number of animals: Mixed cell inflammation, Minimal ([1]; 10 mg/kg): 1
- Number of animals: Mixed cell inflammation, Moderate ([1]; 10 mg/kg): 3
- Number of animals: No Visible Lesions ([1]; 10 mg/kg): 0
- Number of animals: Erosion/Ulcer, cartilaginous, Marked ([1]; 30 mg/kg): 0
- Number of animals: Erosion/Ulcer, cartilaginous, Mild ([1]; 30 mg/kg): 4
- Number of animals: Erosion/Ulcer, cartilaginous, Minimal ([1]; 30 mg/kg): 1
- Number of animals: Erosion/Ulcer, cartilaginous, Moderate ([1]; 30 mg/kg): 0
- Number of animals: Granulation tissue, Marked ([1]; 30 mg/kg): 0
- Number of animals: Granulation tissue, Mild ([1]; 30 mg/kg): 1
- Number of animals: Granulation tissue, Minimal ([1]; 30 mg/kg): 2
- Number of animals: Granulation tissue, Moderate ([1]; 30 mg/kg): 4
- Number of animals: Increased bone, periosteum, Marked ([1]; 30 mg/kg): 0
- Number of animals: Increased bone, periosteum, Mild ([1]; 30 mg/kg): 2
- Number of animals: Increased bone, periosteum, Minimal ([1]; 30 mg/kg): 1
- Number of animals: Increased bone, periosteum, Moderate ([1]; 30 mg/kg): 0
- Number of animals: Increased eroded surface, bone, Marked ([1]; 30 mg/kg): 0
- Number of animals: Increased eroded surface, bone, Mild ([1]; 30 mg/kg): 4
- Number of animals: Increased eroded surface, bone, Minimal ([1]; 30 mg/kg): 0
- Number of animals: Increased eroded surface, bone, Moderate ([1]; 30 mg/kg): 0
- Number of animals: Mixed cell inflammation, Marked ([1]; 30 mg/kg): 0
- Number of animals: Mixed cell inflammation, Mild ([1]; 30 mg/kg): 3
- Number of animals: Mixed cell inflammation, Minimal ([1]; 30 mg/kg): 0
- Number of animals: Mixed cell inflammation, Moderate ([1]; 30 mg/kg): 4
- Number of animals: No Visible Lesions ([1]; 30 mg/kg): 1
- samples with pathologic observations ([1]; CIA rats, 3 mg/kg (group 5)): All samples
- erosion/ulcer in articular cartilage [1, 3]: mild to moderate
- granulation tissue (pannus) [1, 3]: mild and mild to moderate
- increased eroded surface of bone (bone resorption) [1, 3]: mild to moderate
- increased periosteal bone (periosteal bone formation) [1, 3]: mild to moderate
- mixed cell inflammation [1, 3]: moderate to marked
- samples with pathologic observations ([1]; CIA rats, 10 mg/kg (group 6)): All samples
- erosion/ulcer in articular cartilage [1, 4]: mild and moderate
- granulation tissue (pannus) [1, 4]: mild and moderate
- increased eroded surface of bone (bone resorption) [1, 4]: mild and moderate
- increased periosteal bone (periosteal bone formation) [1, 4]: minimal; also recorded: moderate
- mixed cell inflammation [1, 4]: moderate
- samples with no recorded pathological observations ([1]; CIA rats, 30 mg/kg (group 7)): One out of eight
- erosion in the articular cartilages [1, 5]: mild
- granulation tissue (pannus) [1, 5]: mild and moderate
- increased eroded surface of bone (bone resorption) [1, 5]: mild
- increased periosteal bone (periosteal bone formation) [1, 5]: mild
- mixed cell inflammation [1, 5]: mild and moderate
- pathologic observations after microscopic evaluation, overall ([1]; CIA rats, 3, 10 and 30 mg/kg (Groups 5-7)): at lower levels relative to samples from animals in the CIA-induced group (Group 2) in a dose-dependent manner
- Clinical Observation ([2]; 10 mg/kg): Diarrhea
- Clinical Observation ([2]; 30 mg/kg): Diarrhea
- animals that gained weight by the end of the study ([2]; po, 3 mg/kg): 7/8
- body weight over the course of the study ([2]; po, 3 mg/kg): weight gain over the first 13 days of the study, similar to animals in groups 2 and 4, followed by weight loss over the remaining days
- diarrhea over the 21-day period ([2]; po, 3 mg/kg): did not have diarrhea
- increase in body weight, day 21 compared to day 0 ([2]; po, 3 mg/kg): 1.7%
- animals that either gained no weight or lost weight ([2]; po, 10 mg/kg): 5/8
- animals that gained weight by the end of the study ([2]; po, 10 mg/kg): 3/8
- animals that had diarrhea (for a single day) over the 21-day period ([2]; po, 10 mg/kg): Two different animals
- body weight over the course of the study ([2]; po, 10 mg/kg): modest weight gains over the first 10-11 days of the study, followed by weight loss
- body weight relative to CIA + vehicle (group 2) ([2]; po, 10 mg/kg): significantly decreased relative to group 2 on days 6-7 and 10-18 (p<0.01), and on days 9 and 19-21 (p<0.05)
- weight change, day 21 compared to day 0 ([2]; po, 10 mg/kg): approximately 0.5%
- animals that either lost weight or gained no weight ([2]; po, 30 mg/kg): 5/8
- animals that gained weight by the end of the study ([2]; po, 30 mg/kg): 3/8
- animals that had diarrhea over the 21-day period ([2]; po, 30 mg/kg): Four different animals
- body weight over the course of the study ([2]; po, 30 mg/kg): modest weight gains over the first 10-11 days of the study, followed by weight loss
- body weight relative to CIA + vehicle (group 2) ([2]; po, 30 mg/kg): significantly decreased relative to group 2 on days 6-7 and 9-18 (p<0.01), and on days 5 and 19-21 (p<0.05)
- weight change, day 21 compared to day 0 ([2]; po, 30 mg/kg): approximately 0.5%

SMILES: CNC(=O)c1cc(C(=O)NC2CC2)cn(Cc2ccccc2)c1=O [GSK620]
- erosion/ulcer in articular cartilage [1, 6]: mild and mild to moderate
- granulation tissue (pannus) [1, 6]: mild and mild to moderate
- increased eroded surface of bone (bone resorption) [1, 6]: mild and minimal to moderate
- increased periosteal bone (periosteal bone formation) [1, 6]: mild and mild to moderate
- mixed cell inflammation [1, 6]: moderate
- pathologic observations after microscopic evaluation, overall [1, 7]: at a lower level relative to samples from animals in the CIA-induced group
- Number of animals: Erosion/Ulcer, cartilaginous, Marked [1]: 0
- Number of animals: Erosion/Ulcer, cartilaginous, Mild [1]: 6
- Number of animals: Erosion/Ulcer, cartilaginous, Minimal [1]: 0
- Number of animals: Erosion/Ulcer, cartilaginous, Moderate [1]: 2
- Number of animals: Granulation tissue, Marked [1]: 0
- Number of animals: Granulation tissue, Mild [1]: 4
- Number of animals: Granulation tissue, Minimal [1]: 0
- Number of animals: Granulation tissue, Moderate [1]: 4
- Number of animals: Increased bone, periosteum, Marked [1]: 0
- Number of animals: Increased bone, periosteum, Mild [1]: 6
- Number of animals: Increased bone, periosteum, Minimal [1]: 0
- Number of animals: Increased bone, periosteum, Moderate [1]: 2
- Number of animals: Increased eroded surface, bone, Marked [1]: 0
- Number of animals: Increased eroded surface, bone, Mild [1]: 4
- Number of animals: Increased eroded surface, bone, Minimal [1]: 1
- Number of animals: Increased eroded surface, bone, Moderate [1]: 3
- Number of animals: Mixed cell inflammation, Marked [1]: 0
- Number of animals: Mixed cell inflammation, Mild [1]: 0
- Number of animals: Mixed cell inflammation, Minimal [1]: 0
- Number of animals: Mixed cell inflammation, Moderate [1]: 8
- Number of animals: No Visible Lesions [1]: 0
- body weight over the course of the study ([2]; po): modest weight gains over the first 13 days of the study followed by weight loss
- diarrhea over the 21-day period ([2]; po): did not have diarrhea
- increase in body weight, day 21 compared to day 0 ([2]; po): 0.8%

SMILES: C[C@@H]1C[C@H]2[C@@H]3CCC4=CC(=O)C=C[C@]4(C)[C@@]3(F)[C@@H](O)C[C@]2(C)[C@@]1(O)C(=O)CO [dexamethasone]
- pathologic observations after microscopic evaluation, overall [1, 7]: No pathologic observations were noted
- pathologic observations after microscopic evaluation, overall ([1]; CIA rats, daily P.O. for 21 days, listed as Dexamethasone): no histopathological observations noted
- Number of animals: Erosion/Ulcer, cartilaginous, Marked [1]: 0
- Number of animals: Erosion/Ulcer, cartilaginous, Mild [1]: 0
- Number of animals: Erosion/Ulcer, cartilaginous, Minimal [1]: 0
- Number of animals: Erosion/Ulcer, cartilaginous, Moderate [1]: 0
- Number of animals: Granulation tissue, Marked [1]: 0
- Number of animals: Granulation tissue, Mild [1]: 0
- Number of animals: Granulation tissue, Minimal [1]: 0
- Number of animals: Granulation tissue, Moderate [1]: 0
- Number of animals: Increased bone, periosteum, Marked [1]: 0
- Number of animals: Increased bone, periosteum, Mild [1]: 0
- Number of animals: Increased bone, periosteum, Minimal [1]: 0
- Number of animals: Increased bone, periosteum, Moderate [1]: 0
- Number of animals: Increased eroded surface, bone, Marked [1]: 0
- Number of animals: Increased eroded surface, bone, Mild [1]: 0
- Number of animals: Increased eroded surface, bone, Minimal [1]: 0
- Number of animals: Increased eroded surface, bone, Moderate [1]: 0
- Number of animals: Mixed cell inflammation, Marked [1]: 0
- Number of animals: Mixed cell inflammation, Mild [1]: 0
- Number of animals: Mixed cell inflammation, Minimal [1]: 0
- Number of animals: Mixed cell inflammation, Moderate [1]: 0
- Number of animals: No Visible Lesions [1]: 8
- body weight over the course of the study ([2]; po): did not exhibit weight gains over the first 13 days of the study
